Measurements published in US20120028930A1, “FLUPIRTINE SALTS AND POLYMORPHS” (Bionevia Pharmaceuticals Inc., priority 2010, published 2012).
Where a name gives a salt, the structure may show the parent alone.

How the values were obtained:
[1] = stability towards oxidation and discoloration on storage exposed to air; settings: storage period of 30 days at room temperature, in contrast to other acid addition salts, e.g. maleate and gluconate
Description: HPLC can be performed after preparation of the salts and repeated after 14 days of storage at room temperature under normal air containing about 21% oxygen.
HPLC analysis can be performed after isolation and drying of flupirtine sulfonate salts and repeated after 14 days of storage at room temperature under open air.
Discolouration can be measured using optical comparison with a standard: the RAL scale of colours (see list). The colour changes during the experiment is compared to this standard list and the appropriate value is noted. The intensity is increasing on a scale ranging from 1 to 10. A higher number means more discolouration. The increase in colour intensity is not proportional but qualitative.

dissolution rate = type: physicochemical
[2] = cited from earlier work

Row | stability towards oxidation and towards discoloration [1] | dissolution rate (dissolution rate) | Compound | solubility in water [2]
1 | substantially improved stability |  | CCC(=O)O.CCOC(=O)Nc1ccc(NCc2ccc(F)cc2)nc1N [flupirtine propionate, 2-amino-3-carbethoxyamino-6-(4-fluoro-benzylamino)-pyridine propionate] | 
2 |  | 0.088 [μg/mL]/min | CCOC(=O)Nc1ccc(NCc2ccc(F)cc2)nc1N [flupirtine maleate] | insoluble
3 | substantially improved stability |  | CC(=O)O.CCOC(=O)Nc1ccc(NCc2ccc(F)cc2)nc1N [flupirtine acetate, 2-amino-3-carbethoxyamino-6-(4-fluoro-benzylamino)-pyridine acetate] | 
4 | substantially improved stability |  | CCOC(=O)Nc1ccc(NCc2ccc(F)cc2)nc1N.CS(=O)(=O)O [flupirtine mesylate, 2-amino-3-carbethoxyamino-6-(4-fluoro-benzylamino)-pyridine mesylate] | 
